Format in all cases: cell-based
Test [1] concerns porcine PGCs. Briefly: In vitro culture of porcine PGCs on STO feeder cells with apoptosis inhibitors; AP-stained colonies counted. The following applies: for Effect on the number of PGCs, in words: single concentrations of Tables 6 and 7; for Normalized # of Colonies + SE: Table 7 antioxidants: NAC 1.0 mM, BHA 0.1 mM, BPN 1.0 mM, CIM 2.0 mM, normalized to control. The text has this: Porcine fetuses were collected from hysterectomized uteri of four-way crossbred gilts (DeKalb, Ill.) between day 25 and 30 of pregnancy (estrus=day 0). Fetuses were washed in phosphate buffered saline supplemented with BSA (0.4%, Sigma St. Louis, Mo.) and penicillin/streptomycin (1%, Gibco BRL, Rockville, Md.) (PBS/BSA/PS). Urogenital ridges, appeared as longitudinal protrusions along the medial mesonephric surface, were isolated and washed in PBS/BSA/PS followed by several washes in PES medium before PGC collection. The PES medium was comprised of 50:50 mixture of Dulbecco's modified Eagle's medium (DMEM) and Ham's F10 medium supplemented with 15% fetal bovine serum (FBS), L-glutamine (2 mM), β-mercaptoethanol (0.1 mM), MEM non-essential amino acids (1%) and penicillin/streptomycin (1%). All media and supplements were purchased from Gibco BRL.
PGCs were isolated by incubation in 0.25% trypsin/1 mM EDTA solution (Gibco BRL) followed by gentle pipetting or by mechanical dissociation of ridges into small fragments followed by gentle pipetting. After tissue disruption, cells were centrifuged for 5 minutes at 250 rpm to remove tissue debris and clumps. The supernatant containing most the single cells was collected and centrifuged at 1000 rpm for 10 minutes.
PGCs were resuspended with PES medium containing cytokines, such as soluble recombinant human stem cell factor (SCF; 40 ng/ml), human basic fibroblast growth factor (bFGF; 20 ng/ml), and human leukemia inhibitory factor (LIF; 20 ng/ml). All cytokines were obtained from R&D Systems (Minneapolis, Minn.). Cell suspensions were plated on irradiated mouse STO feeder cells (3×10^6 cells per 35 mm well), prepared as previously described (Piedrahita et al., 1998) and cultured in humidified environment of 5% CO2 in air, 38° C. PGC-derived colonies with ES-like morphology after 7-10 days of culture are passaged to fresh feeders for establishment of cell lines. PGC-derived colonies were dissociated with 0.25% trypsin/1 mM EDTA (Gibco BRL) for 10 minutes. […] To identify PGC-derived cells and the state of differentiation were determined by morphology and by expression of alkaline phosphatase (AP).
AP activity was determined as described previously (Moore and Piedrahita, 1997). Briefly, culture plates were rinsed twice in PBS and fixed in 4% formaldehyde in PBS for 15 minutes at room temperature. Fixed cells were washed twice with PBS and stained in naphtol AS-MX phosphate (200 μg/ml; Sigma) and Fast Red TR salt (1 mg/ml; Sigma) in 100 mM Tris buffer, pH 8.2 for 30 minutes at room temperature. Staining was terminated by washing cultures in PBS. Specificity of AP activity was determined by staining in the presence of the AP inhibitor, tetramisole (500 μM; Sigma). Mouse ES cells also were stained as control for AP activity.
To determine the effect of apoptosis inhibitors on survival of porcine PGCs in vitro, freshly isolated PGCs were cultured as described above with or without apoptosis inhibitors, α2-macroglobulin (MAC: broad range protease inhibitor, 1.4 pM) and N-acetylcysteine (NAC: antioxidant, 1 mM). After 7-10 days of culture, colonies were stained for AP activity and counted. Studies were performed at least three replicates. The data were normalized to the treatment with no inhibitors added (control) and tested for homogeneity of variance and analyzed by ANOVA. Mean separation is accomplished by Fisher's protected LSD using software SuperANOVA (Abacus Concepts).
Dose titration of MAC (0.35, 0.7, 1.4, and 2.8 pM) and NAC (0.25, 0.5, 1.0, and 2.0 mM), to determine the optimal concentration of inhibitors, were performed.

Test [2] deals with porcine PGCs. Described as above. The following applies: Table 6 protease inhibitors: MAC 0.7 pM, PA 50 μM, AEBSF 250 μM, TLCK 100 μM; normalized to control.
The subject of test [3] is Porcine embryonic fibroblast (PEF). The test can be described thus: TUNEL assay (flow cytometry) of serum starved porcine embryonic fibroblasts. The following applies: serum starvation 5 days, MAC 0.7 pM, NAC 1 mM, GSH 2 mM, serum starved without inhibitor 26.50. The source says:
(§1) Porcine embryonic fibroblast (PEF) were isolated from day 25-28 fetuses according to the methods previously described (Hogan et al., 1994). Briefly, porcine fetuses of day 25-30 (day 0=estrus) were removed from the uterus and rinsed with PBS+penicillin/streptomycin solution (PBS/PS). Head, limbs and internal organs were removed, and the carcasses were minced with razor blades or ground using a syringe head until they were the consistency of sludge. Then these were trypsinized 2-3 times using 0.25% trypsin+EDTA for 20 minutes. The supernatant fraction was removed and centrifuged to collect the cells. The cells were plated using DMEM+10% fetal bovine serum (FBS) and cultured up to 80-90% confluency before further passage.
(§2) Bovine embryonic fibroblasts (BEF) were isolated from the fetus with 3-5 cm crown-rump length. After two or three passages, cells were plated one million cells per plate (100 mm) with growth medium (DMEM) with 2 mM L-glutamine, 0.1 mM β-mercaptoethanol and 10% FBS. After 24 hours, cells were washed with PBS 3-5 times and then serum starvation medium with 0.5% FBS was added. In addition, cells were treated with serum starvation medium containing apoptosis inhibitors such as a2-macroglobulin (0.7 pM), N-acetylcysteine (1 mM) and glutathione (2 mM). Cells were treated with serum starvation with or without apoptosis inhibitors for 5 or 10 days. Then cells were trypsinized and counted.
After counting, cells were fixed and stained according to protocols with the APO-BRDU kit (Phoenix Flow Systems, San Diego, Calif.). […] To determine base line fluorescence, control cells were incubated without TdT. […] Following counterstaining with a propidium iodide/RNase A solution for 30 minutes in the dark, which allows simultaneous analysis of cell cycle position and apoptosis, cells were analyzed on a FACSCalibur™ flow cytometer (Becton Dickinson, San Jose, Calif.). Fluorescence emissions were measured at 582±21 nm for propidium iodide and 530±15 nm for fluorescein, without spectral compensation, after excitation at 488 nm by an argon-ion laser. […]
On the technique in general: A flow cytometer gives signals particle by particle.

In test [4] the test system is Bovine embryonic fibroblasts (BEF). The test can be described thus: TUNEL assay (flow cytometry) of serum starved bovine embryonic fibroblasts. The following applies: MAC 0.7 pM, NAC 1 mM, GSH 2 mM. How it is done: as §2
After counting, cells were fixed and stained according to protocols with the APO-BRDU kit (Phoenix Flow Systems, San Diego, Calif.). Briefly, cells were fixed in 1% paraformaldehyde in PBS on ice for 15 minutes, washed in PBS, and fixed in 70% ethanol and stored at −20° C. until use. After removing the fixative, cells were washed twice and suspended in 50 μl of labeling solution containing Br-dUTP (bromolated deoxyuridine triphosphate) and TdT (terminal deoxynucleotidyl transferase) for 60 minutes at 37° C. TdT catalyzes the addition of Br-dUTP to the 3′-OH ends of DNA strand breaks in a template independent manner. To determine base line fluorescence, control cells were incubated without TdT. After rinsing, cells were incubated with an anti-BrdU monoclonal antibody conjugated to fluorescein for 30 minutes in the dark at room temperature; apoptotic cells which contain many free 3′-OH ends are intensely labeled, while non-apoptotic cells whose DNA is largely intact have little Br-dUTP incorporation and remain unlabeled. Following counterstaining with a propidium iodide/RNase A solution for 30 minutes in the dark, which allows simultaneous analysis of cell cycle position and apoptosis, cells were analyzed on a FACSCalibur™ flow cytometer (Becton Dickinson, San Jose, Calif.). Fluorescence emissions were measured at 582±21 nm for propidium iodide and 530±15 nm for fluorescein, without spectral compensation, after excitation at 488 nm by an argon-ion laser. For analysis, gates were set so that less than 2% of samples incubated without TdT were positive. Any event above this gate was deemed TUNEL positive for samples incubated with TdT.

The test system is the same in test [5]. The test can be described thus: Cell cycle distribution (propidium iodide flow cytometry) of serum starved bovine embryonic fibroblasts. How it is done: as §2
(§3) Cells (1×10^6) were washed in 0.15 M NaCI, fixed in 70% ethanol, and stored at −20° C. overnight or until ready to be analyzed. For analysis, cells were centrifuged, rinsed with PBS, resuspended in 500 μl of a 0.05 mg/ml propidium iodide/0.1% Triton X-100/0.2 mg/ml RNase A solution, and incubated for a minimum of 30 minutes at room temperature in the dark. Cells were analyzed by flow cytometry to determine DNA content. Modfit LT™ (Verity Software House, Topsham, Me.) was used to model the cell cycle distribution within each sample.

Test [6] concerns Porcine embryonic fibroblast (PEF). The test can be described thus: Cell cycle distribution (propidium iodide flow cytometry) of serum starved porcine embryonic fibroblasts.
Source text: as §1, §2, §3

[7] abbreviates: addition during the starvation period.
Where [8] appears, read: serum starvation 5 days, MAC 0.7 pM, NAC 1 mM, GSH 2 mM.

Where a SMILES comes first, the peptide text is derived from it. [ ]: non-standard residue; d: D form. The star is where a group is joined. Sta = CC(C)C[C@H](N)[C@@H](O)CC(=O)O; Isovaleryl = CC(C)CC(=O)*

For `Cc1ccc(S(=O)(=O)N[C@@H](CCCCN)C(=O)CCl)cc1` [TLCK, Nα-p-tosyl-L-lysine chloromethyl ketone], the “Effect on the number of PGCs, in words” value in the test on porcine PGCs [1] was “positive effect”. Further, in the test with porcine PGCs [2], the “Normalized # of Colonies + SE” value worked out at 1.21 ± 0.10.
Take `CC(C)CC(=O)N[C@H](C(=O)N[C@H](C(=O)N[C@@H](CC(C)C)[C@@H](O)CC(=O)N[C@@H](C)C(=O)N[C@@H](CC(C)C)[C@@H](O)CC(=O)O)C(C)C)C(C)C` [PA, pepstatin A] (Isovaleryl-VV[Sta]A[Sta]-OH): in the test with porcine PGCs [2], the “Normalized # of Colonies + SE” value stood at 0.85 ± 0.13.
As to `CN/C(=N/CCSCc1nc[nH]c1C)NC#N` [CIM, cimetidine], in the test with porcine PGCs [1], the “Normalized # of Colonies + SE” value worked out at 1.95 ± 0.05.
Regarding `NCCc1ccc(S(=O)(=O)F)cc1` [AEBSF, 4-(2-aminoethyl)benzenesulfonyl fluoride], in the test on porcine PGCs [1], the “Effect on the number of PGCs, in words” value was “positive effect”. In addition, the “Normalized # of Colonies + SE” value in the test on porcine PGCs [2] is 1.14 ± 0.07.
Take `N[C@@H](CCC(=O)N[C@@H](CS)C(=O)NCC(=O)O)C(=O)O` [GSH, glutathione]: the “5-day Apoptosis (%)” value is given as 0.12% in test [3] and 1.5% in test [4] (serum starvation 5 days, serum starved without inhibitor 15.0). Also, the “10-day Apoptosis (%)” value in test [4] (serum starvation 10 days, serum starved without inhibitor 20.4) was found to be 0.8%. For the same compound, the “Proportion of cells going into G0, in words” value in test [5] (setting [7]) and in test [6] (setting [7]) was “did not affect the proportion of cells going into G0” each time. For the same compound, the “G2/M (%)” value in test [5] (setting [8]) came out at 10%; in test [6] (setting [8]), 3%. The figures for the “S (%)” value in test [5] (setting [8]) and in test [6] (setting [8]) were 4% and 2%, respectively. For the same compound, the “G0/G1 (%)” value turned out to be 86% in test [5] (serum starvation (0.5% FBS) 5 days, MAC 0.7 pM, NAC 1 mM, GSH 2 mM) and 95% in test [6] (setting [8]).
Consider `COc1ccc(O)c(C(C)(C)C)c1` [BHA, butylated hydroxyanisole], for which the “Normalized # of Colonies + SE” value in the test with porcine PGCs [1] is reported as 2.48 ± 0.27.
As for `CC(C)(C)[N+]([O-])=Cc1ccccc1` [BPN, N-t-butyl-α-phenylnitrone], in the test on porcine PGCs [1], the “Normalized # of Colonies + SE” value is 1.95 ± 0.17.
